The values that follow come from ChEMBL document CHEMBL2073788, “Troglitazone-induced intrahepatic cholestasis by an interference with the hepatobiliary export of bile acids in male and female rats. Correlation with the gender difference in troglitazone sulfate formation and the inhibition of the canalicular bile salt export pump (Bsep) by troglitazone and …” (Toxicology, 2001).

The target in experiment [1] is T1, Bile salt export pump (Rattus norvegicus, UniProt O70127).
T1 sequence (O70127 whole entry): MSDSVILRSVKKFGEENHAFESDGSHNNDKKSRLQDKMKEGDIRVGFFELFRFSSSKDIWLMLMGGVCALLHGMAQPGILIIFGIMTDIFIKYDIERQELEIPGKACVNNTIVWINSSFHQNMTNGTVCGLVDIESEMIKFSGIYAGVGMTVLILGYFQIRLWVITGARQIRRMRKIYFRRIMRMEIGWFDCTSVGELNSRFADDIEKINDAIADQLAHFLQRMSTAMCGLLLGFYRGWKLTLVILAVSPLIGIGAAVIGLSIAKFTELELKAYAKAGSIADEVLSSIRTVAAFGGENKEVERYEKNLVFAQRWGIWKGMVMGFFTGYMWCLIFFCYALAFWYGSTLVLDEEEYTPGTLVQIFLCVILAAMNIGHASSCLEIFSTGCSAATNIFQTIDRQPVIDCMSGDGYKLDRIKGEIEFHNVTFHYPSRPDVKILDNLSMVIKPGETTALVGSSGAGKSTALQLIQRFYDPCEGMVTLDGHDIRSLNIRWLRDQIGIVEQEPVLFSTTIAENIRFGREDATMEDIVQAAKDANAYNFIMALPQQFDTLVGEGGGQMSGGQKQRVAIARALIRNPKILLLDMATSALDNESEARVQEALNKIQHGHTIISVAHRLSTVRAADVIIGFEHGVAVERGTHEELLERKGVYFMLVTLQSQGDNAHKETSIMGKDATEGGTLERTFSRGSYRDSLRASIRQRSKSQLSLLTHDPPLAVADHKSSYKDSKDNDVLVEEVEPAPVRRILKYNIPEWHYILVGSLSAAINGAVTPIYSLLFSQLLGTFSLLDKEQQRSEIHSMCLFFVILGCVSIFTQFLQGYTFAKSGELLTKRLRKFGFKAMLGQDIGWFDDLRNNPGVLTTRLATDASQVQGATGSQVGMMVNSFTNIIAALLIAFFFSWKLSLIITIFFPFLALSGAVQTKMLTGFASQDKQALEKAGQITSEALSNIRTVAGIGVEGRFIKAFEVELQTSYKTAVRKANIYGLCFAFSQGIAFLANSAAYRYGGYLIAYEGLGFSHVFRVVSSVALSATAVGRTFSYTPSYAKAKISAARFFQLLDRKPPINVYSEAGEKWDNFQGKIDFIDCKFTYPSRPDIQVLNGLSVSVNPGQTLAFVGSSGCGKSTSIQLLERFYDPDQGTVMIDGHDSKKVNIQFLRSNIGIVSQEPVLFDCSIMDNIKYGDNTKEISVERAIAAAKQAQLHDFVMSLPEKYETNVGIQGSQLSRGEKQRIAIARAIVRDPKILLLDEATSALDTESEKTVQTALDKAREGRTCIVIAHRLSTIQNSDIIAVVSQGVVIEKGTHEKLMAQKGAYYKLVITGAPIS
Nature of the experiment: TP_TRANSPORTER: inhibition of Taurocholate uptake (Taurocholate: 1 uM) in liver canalicular membrane vesicle from male rat. The class given is functional, cell membranes.

In experiment [2] the target is T1, Bile salt export pump. Nature of the experiment: TP_TRANSPORTER: inhibition of Taurocholate uptake (Taurocholate: 1 uM) in liver canalicular membrane vesicle from female rat. The class given is functional, cell membranes.

As usually defined, the pIC50 is the IC50 on a negative log10 scale, so that one unit is a factor of ten.

Structures are written as SMILES. pIC50: −log10 of the molar value. Where a name gives a salt, the structure may show the parent alone.

Regarding `COc1ccc(Cl)cc1C(=O)NCCc1ccc(S(=O)(=O)NC(=O)NC2CCCCC2)cc1` [GLYBURIDE], the pIC50 at Bile salt export pump [1] is 5.07; at Bile salt export pump [2] it was 4.80.

Consider `Cc1c(C)c2c(c(C)c1O)CCC(C)(COc1ccc(CC3SC(=O)NC3=O)cc1)O2` (stereo not given) [TROGLITAZONE], for which, at Bile salt export pump [2], the pIC50 is 5.41.

As for `Cc1c(C)c2c(c(C)c1OS(=O)(=O)O)CCC(C)(COc1ccc(CC3SC(=O)NC3=O)cc1)O2` (stereo not given) [TROGLITAZONE SULFATE], the values for the pIC50 on Bile salt export pump [1] and at Bile salt export pump [2] were 6.40 and 6.22, respectively.
